According to patent US5883107A, “Arginine mimic derivatives as enzyme inhibitors” (Corvas International, Inc., priority 1995, dated 1999):
pIC50: −log10 of the molar value. Like-named read-outs stand apart in the source and are kept apart here. Each block holds one compound with its values, some of them ahead of it.

What was measured:
[1] = target: T1, trypsin (Bos taurus, UniProt P00760); experiment: In vitro enzyme assay for specificity: trypsin; type: biochemical, bovine; details: 0.5 nM enzyme, 30 minute incubation, read-out: IC50 for inhibition of trypsin
T1 construct: bovine pancreatic trypsin; purchased Worthington Biochemical Corp. TRL3; host or cells: bovine pancreas
T1 sequence (P00760 24-246): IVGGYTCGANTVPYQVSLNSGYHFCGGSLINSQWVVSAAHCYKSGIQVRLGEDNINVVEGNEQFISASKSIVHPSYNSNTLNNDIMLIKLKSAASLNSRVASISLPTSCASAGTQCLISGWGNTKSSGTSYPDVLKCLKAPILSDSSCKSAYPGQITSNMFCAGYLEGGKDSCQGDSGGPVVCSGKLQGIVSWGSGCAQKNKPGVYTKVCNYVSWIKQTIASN
Description: Trypsin catalytic activity was determined using the chromogenic substrate, S-2222 (benzoyl-L-isoleucine-L-glutamic acid-[gamma-methyl ester]-L-arginine-p-nitroanilide), which was obtained from Kabi Diagnostica. […] Purified (3×-crystallized; TRL3) bovine pancreatic trypsin was obtained from Worthington Biochemical Corp. The enzyme was reconstituted in deionized water and diluted into HBSA prior to assay in which the final concentration was 0.5 nM.

[2] = tested on: thrombotic occlusion of the rat carotid artery; experiment: Rat model of FeCl3-induced platelet-dependent arterial thrombosis; type: in vivo; details: iv, 1 h, read-out: ED50, dose that prevents complete thrombotic occlusion in 50% of animals tested
[3] = target: alpha-thrombin (Homo sapiens, UniProt P00734); experiment: In vitro enzyme assay for specificity: thrombin; type: biochemical; details: first of the two values in the cell (two isomeric pair), or the only value; 0.25 nM enzyme, 30 minute incubation; read-out: IC50 for inhibition of alpha-thrombin amidolytic activity
[4] = literature; cited from earlier work
[5] = literature; cited from earlier work; remark: listed apart in the source
[6] = tested on: trypsin, plasmin and kallikrein; details: literature; cited from earlier work
[7] = tested on: thrombin; details: cited from earlier work
[8] = tested on: thrombosis; details: literature; cited from earlier work
[9] = tested on: atherosclerotic rabbit femoral artery; details: following mechanical damage; literature; cited from earlier work
[10] = first of the two values in the cell (two isomeric pair), or the only value

- pIC50 [1, 10]: 5.59
Compound: CCCC(CCC)C(=O)N[C@@H](CC(=O)OC)C(=O)N1CCC[C@H]1C(=O)N[C@@H](C=O)CC1CCCN(C(=N)N)C1 (single isomer, unassigned) [Isomer 11B(D)]

Compound: CCCC(CCC)C(=O)N[C@@H](CC(=O)OC)C(=O)N1CCC[C@H]1C(=O)N[C@H](C=O)CC1CCCN(C(=N)N)C1 (single isomer, unassigned) [Isomer 11B, alpha-N-(propylpentanoyl)-aspartyl(beta-methyl ester)-prolyl-3-[3-piperidyl-(N-guanidino)]-L-alaninal]
- pIC50 [1, 10]: 7.17
- pIC50 ([1]; second of the two values in the cell (two isomeric pair)): 6.95
- ED50 [2]: 5 mg/kg

- pIC50 [1, 10]: 6.82
- pIC50 [3]: 8.51
Compound: CCCC(CCC)C(=O)N[C@@H](Cc1nnn[nH]1)C(=O)N1CCC[C@H]1C(=O)N[C@H](C=O)CC1CCCN(C(=N)N)C1 (single isomer, unassigned) [Isomer 19B]

Compound: N=C(N)c1ccc(CC(=O)C(=O)O)cc1 [APPA, 4-amidinophenylpyruvic acid]
- pharmacokinetics (in words) [4]: favourable pharmacokinetics
- toxicity (in words) [5]: low toxicity
- selectivity (in words) [6]: non-selective, inhibiting trypsin, plasmin and kallikrein

Compound: CC(=O)N[C@H](Cc1ccccc1)C(=O)N1CCC[C@H]1C(=O)N[C@@H](CCCNC(=N)N)B(O)O [Ac-(D-Phe)-Pro-boroArg, acetyl-D-phenylalanyl-prolyl-boroarginine]
- inhibition of thrombin (in words) ([7]; literature): inhibit thrombin by directly binding to the active site

Compound: CC1CNc2c(cccc2S(=O)(=O)N[C@@H](CCCNC(=N)N)C(=O)N2CC[C@@H](C)C[C@@H]2C(=O)O)C1 (stereo partly drawn) [Argatroban, 2R,4R-4-methyl-1-[N-2-(3-methyl-1,2,3,4-tetrahydro-8-quinolinesulfonyl)-L-argininal]-2-piperdinecarboxylic acid]
- antithrombotic effect (in words) [8]: potent antithrombotic agent in several experimental models of acute arterial thrombosis
- inhibition of thrombin (in words) [7]: bind directly to the active site of thrombin

Compound: N=C(N)NCCC[C@@H](C=O)NC(=O)[C@@H]1CCCN1C(=O)[C@H](N)Cc1ccccc1 [D-Phe-Pro-Arg-a1, D-phenylalanyl-prolyl-argininal]
- inhibition of thrombin (in words) [7]: inhibit thrombin by directly binding to the active site

Compound: CS(=O)(=O)O.CS(=O)(=O)O.N=C(N)Nc1ccc(C(=O)Oc2ccc3cc(C(=N)N)ccc3c2)cc1 [FUT 175, 6-amidino-2-naphthyl-4-guanidinobenzoate dimethanesulfonate]
- selectivity (in words) [6]: non-selective

Compound: N=C(N)NCCC[C@H](NC(=O)[C@@H]1CCCN1C(=O)[C@H](N)Cc1ccccc1)C(=O)CCl [P-PACK, D-phenylalanyl-prolyl-arginine-chloromethyl ketone]
- inhibition of thrombin (in words) [7]: inhibit thrombin by directly binding to the active site

Compound: Hirudin
- smooth muscle proliferation and restenosis (in words) [9]: effectively inhibit smooth muscle proliferation and the associated restenosis
- antithrombotic effect (in words) [8]: potent antithrombotic agent in vivo
- inhibition of thrombin (in words) ([7]; literature): one of the most potent inhibitors of thrombin known
